What was measured:
Assay in all cases: Binding assay
Conditions in all cases: smilagenin 1 μM
[1] = biological target: Androgen (testosterone) AR (Rattus norvegicus, UniProt P15207)
Protocol: (§1) The receptor binding was investigated using the following method: Sarsasapogenin was incubated with tissue or cell homogenate that expressed the receptor of interest and a known concentration a radiolabelled compound with affinity for the receptor of interest. After the incubation period the non-bound radiolabelled compound was removed and the amount of specific binding was quantified. The amount of specific binding in the presence and absence of sarsasapogenin were compared and the percent inhibition of the binding of the radiolabelled compound by sarsasapogenin was calculated. The source of the receptor, the incubation conditions, the radiolabelled compound used varied depending on each specific assay.
(§2) Using the same methods as described above, the binding of smilagenin (1 μM) to the receptors listed in Table 2 below, and the effect of smilagenin on the activity of the enzymes listed in Table 2 below, were investigated.

Aldosterone = Aldosterone (Rattus norvegicus, UniProt P22199)
Protocol: as §1, §2

Opiate δ (OP1, DOP) = Opiate δ (OP1, DOP) (Homo sapiens, UniProt P41143)
Opiate δ (OP1, DOP), sequence (P41143 whole entry): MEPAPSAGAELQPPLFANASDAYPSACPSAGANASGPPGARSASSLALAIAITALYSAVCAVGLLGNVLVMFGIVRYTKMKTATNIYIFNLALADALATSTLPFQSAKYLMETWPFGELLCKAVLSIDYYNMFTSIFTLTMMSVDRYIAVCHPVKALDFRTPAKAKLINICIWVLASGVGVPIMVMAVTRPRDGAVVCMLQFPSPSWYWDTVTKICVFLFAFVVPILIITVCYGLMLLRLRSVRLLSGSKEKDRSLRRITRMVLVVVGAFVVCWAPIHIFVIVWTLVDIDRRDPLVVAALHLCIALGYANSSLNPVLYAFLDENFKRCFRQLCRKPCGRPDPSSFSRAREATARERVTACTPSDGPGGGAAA
Protocol: as §1, §2

Interleukin IL-2 = Interleukin IL-2 (Mus musculus, UniProt P01590)
Protocol: as §1, §2

Tachykinin NK2 = Tachykinin NK2 (Homo sapiens, UniProt P21452)
Tachykinin NK2, sequence (P21452 whole entry): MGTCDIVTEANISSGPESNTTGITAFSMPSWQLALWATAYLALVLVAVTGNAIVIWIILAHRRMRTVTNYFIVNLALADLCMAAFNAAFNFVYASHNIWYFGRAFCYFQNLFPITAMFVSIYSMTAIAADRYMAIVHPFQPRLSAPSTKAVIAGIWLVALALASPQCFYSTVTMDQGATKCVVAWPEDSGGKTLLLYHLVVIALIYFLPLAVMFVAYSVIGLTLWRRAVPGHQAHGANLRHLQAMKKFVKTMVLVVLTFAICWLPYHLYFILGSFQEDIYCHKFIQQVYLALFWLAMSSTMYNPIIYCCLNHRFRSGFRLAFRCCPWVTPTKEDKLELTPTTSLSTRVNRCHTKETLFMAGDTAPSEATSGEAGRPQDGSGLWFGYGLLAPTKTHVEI
Protocol: as §1, §2

[2] = biological target: Calcitonin Gene-Related Peptide CGRP1 (Homo sapiens, UniProt O60894+Q16602)
Calcitonin Gene-Related Peptide CGRP1, sequence (Q16602 23-461): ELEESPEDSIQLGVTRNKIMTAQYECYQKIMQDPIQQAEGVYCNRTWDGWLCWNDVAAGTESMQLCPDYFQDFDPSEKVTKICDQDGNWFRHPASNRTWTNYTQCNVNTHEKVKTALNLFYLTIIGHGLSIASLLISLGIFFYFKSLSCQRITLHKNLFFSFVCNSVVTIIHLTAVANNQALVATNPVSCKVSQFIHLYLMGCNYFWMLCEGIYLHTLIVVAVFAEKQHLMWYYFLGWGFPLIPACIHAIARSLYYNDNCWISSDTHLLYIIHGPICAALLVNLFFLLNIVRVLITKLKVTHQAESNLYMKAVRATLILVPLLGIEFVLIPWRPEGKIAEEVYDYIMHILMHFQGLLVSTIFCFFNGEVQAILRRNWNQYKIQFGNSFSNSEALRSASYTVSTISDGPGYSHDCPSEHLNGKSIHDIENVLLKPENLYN
Calcitonin Gene-Related Peptide CGRP1, sequence (O60894 27-148 partner): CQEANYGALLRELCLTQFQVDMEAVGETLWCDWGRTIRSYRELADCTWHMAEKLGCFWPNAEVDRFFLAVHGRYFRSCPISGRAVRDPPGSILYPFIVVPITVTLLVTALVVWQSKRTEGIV
Protocol: as §1, §2

APJ = APJ (Homo sapiens, UniProt P35414)
Protocol: as §1, §2

Angiotensin AT2 = Angiotensin AT2 (Homo sapiens, UniProt P50052)
Protocol: as §1, §2

[3] = biological target: N-Formyl Peptide Receptor-Like FPRL1 (Homo sapiens, UniProt P25090)
N-Formyl Peptide Receptor-Like FPRL1, sequence (P25090 whole entry): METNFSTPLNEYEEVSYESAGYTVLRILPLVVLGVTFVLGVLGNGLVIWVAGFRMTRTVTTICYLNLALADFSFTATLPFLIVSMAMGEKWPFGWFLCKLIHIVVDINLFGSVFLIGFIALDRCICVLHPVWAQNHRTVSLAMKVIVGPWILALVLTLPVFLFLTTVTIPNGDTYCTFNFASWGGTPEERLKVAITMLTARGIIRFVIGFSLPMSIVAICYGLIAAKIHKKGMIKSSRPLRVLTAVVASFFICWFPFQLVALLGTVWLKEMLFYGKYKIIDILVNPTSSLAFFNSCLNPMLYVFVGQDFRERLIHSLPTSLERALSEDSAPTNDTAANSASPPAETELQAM
Protocol: as §1, §2

Insulin = Insulin (Rattus norvegicus, UniProt P15127)
Protocol: as §1, §2

Interleukin IL-6 = Interleukin IL-6 (Homo sapiens, UniProt P08887)
Interleukin IL-6, sequence (P08887 20-468): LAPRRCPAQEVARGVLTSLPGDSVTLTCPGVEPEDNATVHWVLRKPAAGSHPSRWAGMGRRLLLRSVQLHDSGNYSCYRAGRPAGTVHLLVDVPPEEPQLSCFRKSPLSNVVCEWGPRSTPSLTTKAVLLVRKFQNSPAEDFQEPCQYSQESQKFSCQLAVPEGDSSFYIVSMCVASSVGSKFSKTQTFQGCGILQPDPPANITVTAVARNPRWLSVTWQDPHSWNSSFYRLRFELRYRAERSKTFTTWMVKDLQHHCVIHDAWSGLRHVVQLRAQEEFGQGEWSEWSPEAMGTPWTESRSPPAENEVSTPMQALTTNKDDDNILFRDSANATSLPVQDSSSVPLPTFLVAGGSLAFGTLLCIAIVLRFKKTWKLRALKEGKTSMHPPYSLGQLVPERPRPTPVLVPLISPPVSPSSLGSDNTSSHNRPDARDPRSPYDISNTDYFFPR
Protocol: as §1, §2

[4] = biological target: Cholecystokinin CCK2 (CCKB) (Homo sapiens, UniProt P32239)
Protocol: as §1, §2

Dopamine D5 = Dopamine D5 (Homo sapiens, UniProt P21918)
Protocol: as §1, §2

[5] = biological target: Leukotriene, Cysteinyl CysLT2 (Homo sapiens, UniProt Q9NS75)
Leukotriene, Cysteinyl CysLT2, sequence (Q9NS75 whole entry): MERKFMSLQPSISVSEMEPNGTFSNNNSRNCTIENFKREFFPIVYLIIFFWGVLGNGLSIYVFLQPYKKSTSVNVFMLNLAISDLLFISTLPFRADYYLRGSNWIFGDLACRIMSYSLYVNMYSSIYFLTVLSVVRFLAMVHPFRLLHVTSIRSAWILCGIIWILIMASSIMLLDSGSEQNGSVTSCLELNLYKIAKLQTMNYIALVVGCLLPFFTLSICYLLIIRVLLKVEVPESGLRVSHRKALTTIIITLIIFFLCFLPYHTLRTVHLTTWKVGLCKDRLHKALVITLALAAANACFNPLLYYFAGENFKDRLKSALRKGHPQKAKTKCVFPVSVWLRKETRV
Protocol: as §1, §2

Adrenergic α2A = Adrenergic α2A (Homo sapiens, UniProt P08913)
Protocol: as §1, §2

Opiate μ (OP3, MOP) = Opiate μ (OP3, MOP) (Homo sapiens, UniProt P35372)
Opiate μ (OP3, MOP), sequence (P35372 whole entry): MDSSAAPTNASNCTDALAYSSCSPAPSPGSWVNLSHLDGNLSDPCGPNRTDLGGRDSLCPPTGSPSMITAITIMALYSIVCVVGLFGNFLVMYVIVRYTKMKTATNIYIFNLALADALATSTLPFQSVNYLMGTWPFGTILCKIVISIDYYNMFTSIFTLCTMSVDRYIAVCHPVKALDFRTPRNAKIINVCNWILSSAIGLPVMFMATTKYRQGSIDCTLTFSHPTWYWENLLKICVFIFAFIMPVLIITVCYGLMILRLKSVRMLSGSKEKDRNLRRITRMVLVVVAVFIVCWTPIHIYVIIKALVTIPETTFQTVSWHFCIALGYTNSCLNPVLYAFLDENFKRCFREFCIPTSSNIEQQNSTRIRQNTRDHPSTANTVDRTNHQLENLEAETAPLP
Protocol: as §1, §2

Histamine H4 = Histamine H4 (Homo sapiens, UniProt Q9H3N8)
Protocol: as §1, §2

Histamine H2 = biological target: T1, Histamine H2 (Homo sapiens, UniProt P25021)
T1 construct: host or cells: tissue or cell homogenate (not specified)
T1 sequence (P25021 whole entry): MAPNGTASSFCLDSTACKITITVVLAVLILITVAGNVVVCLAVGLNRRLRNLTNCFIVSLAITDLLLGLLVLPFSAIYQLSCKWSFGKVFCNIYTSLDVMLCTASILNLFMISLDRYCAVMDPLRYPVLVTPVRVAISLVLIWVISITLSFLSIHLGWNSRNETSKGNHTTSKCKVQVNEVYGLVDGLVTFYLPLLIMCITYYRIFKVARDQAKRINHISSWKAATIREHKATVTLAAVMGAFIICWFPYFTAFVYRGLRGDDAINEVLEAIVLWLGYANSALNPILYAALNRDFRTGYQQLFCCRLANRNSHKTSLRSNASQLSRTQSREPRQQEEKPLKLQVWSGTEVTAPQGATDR
Protocol: as §1, §2

Muscarinic M4 = biological target: T2, Muscarinic M4 (Homo sapiens, UniProt P08173)
T2 construct: host or cells: tissue or cell homogenate, not specified
Protocol: as §1, §2

[6] = biological target: 5-Hydroxytryptamine, 5-HT2B (Homo sapiens, UniProt P41595)
Protocol: as §1, §2

Adensonine A2A = Adensonine A2A (Homo sapiens, UniProt P29274)
Adensonine A2A, sequence (P29274 whole entry): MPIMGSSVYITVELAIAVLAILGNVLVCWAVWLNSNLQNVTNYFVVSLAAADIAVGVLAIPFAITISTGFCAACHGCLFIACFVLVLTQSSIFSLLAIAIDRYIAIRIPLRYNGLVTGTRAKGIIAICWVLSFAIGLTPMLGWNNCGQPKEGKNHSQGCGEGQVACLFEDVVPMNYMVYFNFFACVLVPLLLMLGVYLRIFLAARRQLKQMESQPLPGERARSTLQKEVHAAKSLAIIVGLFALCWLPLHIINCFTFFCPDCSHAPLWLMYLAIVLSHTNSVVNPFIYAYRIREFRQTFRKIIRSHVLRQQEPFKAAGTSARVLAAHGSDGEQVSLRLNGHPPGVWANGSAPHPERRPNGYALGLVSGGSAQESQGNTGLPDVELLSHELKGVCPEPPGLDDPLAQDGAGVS
Protocol: as §1, §2

Adensonine A1 = Adensonine A1 (Homo sapiens, UniProt P30542)
Protocol: as §1, §2

Chemokine CCR4 = Chemokine CCR4 (Homo sapiens, UniProt P51679)
Protocol: as §1, §2

Prostanoid DP = Prostanoid DP (Homo sapiens, UniProt Q13258)
Protocol: as §1, §2

Purinergic P2X = tested on: Purinergic P2X
Protocol: as §1, §2

Neuromedin U MNU1 = Neuromedin U MNU1 (Homo sapiens, UniProt Q9HB89)
Neuromedin U MNU1, sequence (Q9HB89 whole entry): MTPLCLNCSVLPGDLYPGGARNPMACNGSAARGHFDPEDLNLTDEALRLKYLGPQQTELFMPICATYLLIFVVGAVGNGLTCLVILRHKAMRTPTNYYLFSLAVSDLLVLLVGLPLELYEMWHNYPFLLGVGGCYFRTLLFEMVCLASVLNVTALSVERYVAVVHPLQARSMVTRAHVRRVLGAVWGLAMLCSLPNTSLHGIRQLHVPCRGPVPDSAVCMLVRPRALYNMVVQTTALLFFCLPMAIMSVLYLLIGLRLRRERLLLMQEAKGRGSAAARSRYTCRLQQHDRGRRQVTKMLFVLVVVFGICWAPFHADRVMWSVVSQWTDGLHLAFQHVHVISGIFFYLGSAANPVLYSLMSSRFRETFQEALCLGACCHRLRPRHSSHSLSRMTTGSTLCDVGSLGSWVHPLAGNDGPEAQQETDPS
Protocol: as §1, §2

Adrenomedullin AM2 = Adrenomedullin AM2 (Homo sapiens, UniProt O60896+Q16602)
Adrenomedullin AM2, sequence (Q16602 23-461): as the sequence (Q16602 23-461) above
Adrenomedullin AM2, sequence (O60896 24-148 partner): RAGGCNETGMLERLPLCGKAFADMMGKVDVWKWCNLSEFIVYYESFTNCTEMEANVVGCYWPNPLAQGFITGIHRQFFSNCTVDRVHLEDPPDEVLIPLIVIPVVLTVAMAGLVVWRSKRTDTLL
Protocol: as §1, §2

Angiotensin AT1 = Angiotensin AT1 (Homo sapiens, UniProt P30556)
Protocol: as §1, §2

Somatostatin sst3 = Somatostatin sst3 (Homo sapiens, UniProt P32745)
Protocol: as §1, §2

Adrenomedullin AM1 = Adrenomedullin AM1 (Homo sapiens, UniProt O60895+Q16602)
Adrenomedullin AM1, sequence (Q16602 23-461): as the sequence (Q16602 23-461) above
Adrenomedullin AM1, sequence (O60895 43-175 partner): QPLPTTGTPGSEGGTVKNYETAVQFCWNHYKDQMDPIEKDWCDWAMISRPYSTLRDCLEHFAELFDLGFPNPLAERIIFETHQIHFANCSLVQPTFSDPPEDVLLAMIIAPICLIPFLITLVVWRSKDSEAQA
Protocol: as §1, §2

Glutamate, NMDA, Glycine = biological target: T3, Glutamate, NMDA, Glycine (Rattus norvegicus, UniProt P35439)
T3 construct: host or cells: tissue or cell homogenate (not specified)
Protocol: as §1, §2

Motilin = Motilin (Homo sapiens, UniProt O43193)
Motilin, sequence (O43193 whole entry): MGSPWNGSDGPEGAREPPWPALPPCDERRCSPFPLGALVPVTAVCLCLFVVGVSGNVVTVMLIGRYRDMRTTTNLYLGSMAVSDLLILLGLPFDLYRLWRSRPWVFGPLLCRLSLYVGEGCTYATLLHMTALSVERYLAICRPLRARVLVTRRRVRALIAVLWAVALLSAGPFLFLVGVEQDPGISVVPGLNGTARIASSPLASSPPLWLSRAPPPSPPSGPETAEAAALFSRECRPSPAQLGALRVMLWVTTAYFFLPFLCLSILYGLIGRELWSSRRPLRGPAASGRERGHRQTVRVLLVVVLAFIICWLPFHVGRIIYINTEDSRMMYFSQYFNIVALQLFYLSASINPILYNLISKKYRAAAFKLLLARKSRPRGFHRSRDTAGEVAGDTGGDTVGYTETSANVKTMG
Protocol: as §1, §2

Muscarinic M5 = biological target: T4, Muscarinic M5 (Homo sapiens, UniProt P08912)
T4 construct: host or cells: tissue or cell homogenate, not specified
Protocol: as §1, §2

Chemokine CXCR1 (IL-8RB) = Chemokine CXCR1 (IL-8RB) (Homo sapiens, UniProt P25025)
Protocol: as §1, §2

Neurotensin NT1 = Neurotensin NT1 (Homo sapiens, UniProt P30989)
Protocol: as §1, §2

Bombesin BB3 = Bombesin BB3 (Homo sapiens, UniProt P32247)
Protocol: as §1, §2

C[C@@H]1CC[C@@]2(OC1)O[C@H]1C[C@H]3[C@@H]4CC[C@@H]5C[C@@H](O)CC[C@]5(C)[C@H]4CC[C@]3(C)[C@H]1[C@@H]2C [Smilagenin, smilagenin]
Effect (%) [1]: NS (NS = No significant response. Significance was taken as ≧30% stimulation or inhibition) | Effect (%) (Aldosterone): NS (NS = No significant response. Significance was taken as ≧30% stimulation or inhibition) | Effect (%) (Opiate δ (OP1, DOP)): NS (NS = No significant response. Significance was taken as ≧30% stimulation or inhibition) | Effect (%) (Interleukin IL-2): NS (NS = No significant response. Significance was taken as ≧30% stimulation or inhibition) | Effect (%) (Tachykinin NK2): NS (NS = No significant response. Significance was taken as ≧30% stimulation or inhibition) | Effect (%) [2]: NS (NS = No significant response. Significance was taken as ≧30% stimulation or inhibition) | Effect (%) (APJ): NS (NS = No significant response. Significance was taken as ≧30% stimulation or inhibition) | Effect (%) (Angiotensin AT2): NS (NS = No significant response. Significance was taken as ≧30% stimulation or inhibition) | Effect (%) [3]: NS (NS = No significant response. Significance was taken as ≧30% stimulation or inhibition) | Effect (%) (Insulin): NS (NS = No significant response. Significance was taken as ≧30% stimulation or inhibition) | Effect (%) (Interleukin IL-6): NS (NS = No significant response. Significance was taken as ≧30% stimulation or inhibition) | Effect (%) [4]: NS (NS = No significant response. Significance was taken as ≧30% stimulation or inhibition) | Effect (%) (Dopamine D5): NS (NS = No significant response. Significance was taken as ≧30% stimulation or inhibition) | Effect (%) [5]: NS (NS = No significant response. Significance was taken as ≧30% stimulation or inhibition) | Effect (%) (Adrenergic α2A): NS (NS = No significant response. Significance was taken as ≧30% stimulation or inhibition) | Effect (%) (Opiate μ (OP3, MOP)): NS (NS = No significant response. Significance was taken as ≧30% stimulation or inhibition) | Effect (%) (Histamine H4): NS (NS = No significant response. Significance was taken as ≧30% stimulation or inhibition) | Effect (%) (Histamine H2): NS (NS = No significant response. Significance was taken as ≧30% stimulation or inhibition) | Effect (%) (Muscarinic M4): NS (NS = No significant response. Significance was taken as ≧30% stimulation or inhibition) | Effect (%) [6]: NS (NS = No significant response. Significance was taken as ≧30% stimulation or inhibition) | Effect (%) (Adensonine A2A): NS (NS = No significant response. Significance was taken as ≧30% stimulation or inhibition) | Effect (%) (Adensonine A1): NS (NS = No significant response. Significance was taken as ≧30% stimulation or inhibition) | Effect (%) (Chemokine CCR4): NS (NS = No significant response. Significance was taken as ≧30% stimulation or inhibition) | Effect (%) (Prostanoid DP): NS (NS = No significant response. Significance was taken as ≧30% stimulation or inhibition) | Effect (%) (Purinergic P2X): NS (NS = No significant response. Significance was taken as ≧30% stimulation or inhibition) | Effect (%) (Neuromedin U MNU1): NS (NS = No significant response. Significance was taken as ≧30% stimulation or inhibition) | Effect (%) (Adrenomedullin AM2): NS (NS = No significant response. Significance was taken as ≧30% stimulation or inhibition) | Effect (%) (Angiotensin AT1): NS (NS = No significant response. Significance was taken as ≧30% stimulation or inhibition) | Effect (%) (Somatostatin sst3): NS (NS = No significant response. Significance was taken as ≧30% stimulation or inhibition) | Effect (%) (Adrenomedullin AM1): NS (NS = No significant response. Significance was taken as ≧30% stimulation or inhibition) | Effect (%) (Glutamate, NMDA, Glycine): NS (NS = No significant response. Significance was taken as ≧30% stimulation or inhibition) | Effect (%) (Motilin): NS (NS = No significant response. Significance was taken as ≧30% stimulation or inhibition) | Effect (%) (Muscarinic M5): NS (NS = No significant response. Significance was taken as ≧30% stimulation or inhibition) | Effect (%) (Chemokine CXCR1 (IL-8RB)): NS (NS = No significant response. Significance was taken as ≧30% stimulation or inhibition) | Effect (%) (Neurotensin NT1): NS (NS = No significant response. Significance was taken as ≧30% stimulation or inhibition) | Effect (%) (Bombesin BB3): NS (NS = No significant response. Significance was taken as ≧30% stimulation or inhibition)

— patent publication US20120034193A1, “TREATMENT OF NEUROTROPHIC FACTOR MEDIATED DISORDERS” (priority 2009, published 2012)
